How the values were obtained:
P protein = conditions: cited from earlier work
T protein = T protein (Homo sapiens, UniProt P48728); conditions: cited from earlier work
[1] = biological target: T1, glycine cleavage system (GCS) (Homo sapiens, UniProt P23378); conditions: cited from earlier work
T1 sequence (P23378 36-1020): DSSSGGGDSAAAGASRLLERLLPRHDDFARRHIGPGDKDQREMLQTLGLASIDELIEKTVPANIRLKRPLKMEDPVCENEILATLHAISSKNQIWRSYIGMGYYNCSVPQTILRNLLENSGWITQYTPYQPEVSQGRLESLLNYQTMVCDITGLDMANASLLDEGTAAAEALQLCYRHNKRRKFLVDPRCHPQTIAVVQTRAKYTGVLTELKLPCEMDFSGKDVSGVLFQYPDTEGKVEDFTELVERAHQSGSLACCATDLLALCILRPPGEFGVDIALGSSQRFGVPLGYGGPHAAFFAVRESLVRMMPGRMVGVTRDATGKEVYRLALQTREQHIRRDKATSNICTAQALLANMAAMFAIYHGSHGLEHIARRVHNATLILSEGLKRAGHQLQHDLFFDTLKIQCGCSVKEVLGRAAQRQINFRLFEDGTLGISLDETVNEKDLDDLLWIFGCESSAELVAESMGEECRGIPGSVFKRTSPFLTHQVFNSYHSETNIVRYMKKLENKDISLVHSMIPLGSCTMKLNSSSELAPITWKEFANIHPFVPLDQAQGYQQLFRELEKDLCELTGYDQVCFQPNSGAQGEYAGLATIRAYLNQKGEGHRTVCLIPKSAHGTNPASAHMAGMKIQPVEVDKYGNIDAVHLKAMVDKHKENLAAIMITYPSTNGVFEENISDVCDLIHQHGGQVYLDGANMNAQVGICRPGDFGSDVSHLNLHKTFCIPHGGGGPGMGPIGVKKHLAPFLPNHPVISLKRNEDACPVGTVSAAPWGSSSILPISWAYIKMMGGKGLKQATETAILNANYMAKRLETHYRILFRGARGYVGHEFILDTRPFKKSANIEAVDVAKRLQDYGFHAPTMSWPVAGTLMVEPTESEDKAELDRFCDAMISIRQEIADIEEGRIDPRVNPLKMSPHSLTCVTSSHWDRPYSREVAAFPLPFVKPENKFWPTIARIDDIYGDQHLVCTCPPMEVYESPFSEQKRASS

[2] = patients with NKH; cited from earlier work
[3] = test system: glycine cleavage activity in the liver; conditions: administration to rats; cited from earlier work
[4] = test system: GLDC-knockdown-sensitive cells; experiment: Cysteamine treatment, cell viability by ATP assay; assay type: cell-based; conditions: 1 mM, 4 days
Protocol: FIGS. 3A-3C. GLDC shRNA sensitive lines, but not insensitive lines, are also sensitive to pharmacological inhibition of the GCS, and to shRNA knockdown of another GCS component (GCSH). (A) Various cell lines were treated with 1 mM cysteamine for 4 days. […] (C) Various cells lines were infected with GS1, GS2, GS3, or GS4 shRNAs for 6 days. Cell viability was measured and data from multiple experiments is shown ±S.D. The blue line indicates cell viability for each cell line when infected with control (GFP) shRNA, which was set as 100%. Thus, data for each cell line is shown as a % relative to viability when infected with shGFP. For (A) and (C), asterisk indicates a statistically significant decrease in cell viability following cysteamine treatment relative to untreated (p<0.05). Red font indicates GLDC shRNA-sensitive lines, and blue font indicates insensitive lines.
We assessed the effect of treatment with cysteamine, an inhibitor of the GCS (9) on a number of the tumor cell lines that had been examined in the experiments described in Example 3. Cells were treated with cysteamine (1 mM) for 4 days, and cell viability was then assessed using an ATP assay.

Chain of T protein (P48728 29-403): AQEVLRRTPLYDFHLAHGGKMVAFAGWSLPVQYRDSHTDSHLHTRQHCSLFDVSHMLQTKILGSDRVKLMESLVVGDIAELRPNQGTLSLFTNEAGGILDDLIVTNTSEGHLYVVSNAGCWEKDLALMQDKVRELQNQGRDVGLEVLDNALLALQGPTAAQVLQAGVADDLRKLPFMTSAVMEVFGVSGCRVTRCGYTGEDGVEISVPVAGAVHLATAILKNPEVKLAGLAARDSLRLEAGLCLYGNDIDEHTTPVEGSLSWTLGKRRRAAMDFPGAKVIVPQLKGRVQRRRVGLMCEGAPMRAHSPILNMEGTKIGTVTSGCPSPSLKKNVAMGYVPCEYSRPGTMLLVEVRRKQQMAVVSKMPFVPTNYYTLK

## NOCC(=O)O [carboxymethoxylamine]
P protein
  inhibition of P protein: reported to inhibit P protein

## CN1c2c(nc(N)[nH]c2=O)NCC1CNc1ccc(C(=O)N[C@@H](CCC(=O)O)C(=O)O)cc1 (stereo partly drawn) [5-methyltetrahydrofolate]
T protein
  inhibition of T protein: inhibits T protein

## C#CCN [propargylamine, 3-Amino-1-propyne]
[1]
  inhibition of the GCS: reported to inhibit the GCS

## CCCC(CCC)C(=O)O [valproic acid, 2-propylpentanoic acid]
[2]
  seizure frequency: increase in seizure frequency
[3]
  glycine cleavage activity in the liver: inhibit glycine cleavage activity in the liver
P protein; in vitro
  P protein activity in vitro: reduced

## N#CCN [aminoacetonitrile]
[1]
  inhibition of the GCS: reported to inhibit the GCS

## NCCS [cysteamine, 2-aminoethanethiol]
[4]
  cell viability (ATP assay): impaired viability
[1]
  inhibition of the GCS: known inhibitor of the GCS
